# Legend:
# [1] = system: promoter of the human klotho gene; assay: Luciferase expression experiment, human klotho promoter reporter (1.7 kbp or 240 bp) in RPTEC cells; format: cell-based; details: 5 μM, 24 hours, promoter 1.7 kbp or 240 bp, among Comparative Examples 1 to 4, FIG. 1
# Protocol: (§1) In order to evaluate whether the klotho gene was expressed by the evaluation of luciferase activity, human renal proximal tubule epithelial cells (RPTECs) (ATCC CRL-4031), which are epithelial cells of the proximal tubule of the human kidneys, were purchased from Lonza, USA and used.
# (§2) For culturing, a Renal Epithelial Growth Medium (REGM™) Bullet kit, also manufactured by the same Lonza company, was used, and the cells were cultured under conditions of 37° C. and 5% CO2. As a plasmid for luciferase expression, a plasmid in which the promoter site of a human KL (klotho) gene was disposed to regulate the expression of a firefly luciferase gene was used.
# The plasmid was incorporated into cells using an X-treme GENE transfection reagent from Roche. The activity of luciferase expressed in cells was measured using a Dual-Luciferase reporter assay system manufactured by Promega. After the cultured cells were treated with each compound at an indicated concentration for 24 hours, the activity of luciferase was measured. It is indirectly shown that the expression of the klotho gene may be increased when the activity of luciferase is high. […]
# klotho (KL) gene [2] = assay: Quantitative evaluation of klotho (KL) gene expression level using general PCR in RPTEC cells; format: cell-based, human; details: 2.5 μM, 6 hours, FIG. 5
# Protocol: After RPTEC cells, which are epithelial cells of the proximal tubule of the human kidneys, were each treated with the compounds of Examples 7 to 10 at 2.5 μM for 6 hours, RNA was extracted from the cells, and cDNA was prepared from the extracted RNA using a Superscript II kit from Thermo Fisher Scientific, Inc., and then general PCR was performed.
# Information on the primers used in the experiment is as follows. • KL-F […] (SEQ ID NO: 1) • KL-R […] (SEQ ID NO: 2) • GAPDH-F […] (SEQ ID NO: 3) • GAPDH-R […] (SEQ ID NO: 4)
# The DNA amplified by PCR was confirmed by staining with ethidium bromide after electrophoresis on an agarose gel, and the amounts of DNA in the band were quantitatively compared using the SPEedyQuant program, and are illustrated in FIG. 5.
# [3] = system: human kidney-2 (HK2) cells; assay: Toxicity test (EZ-Cytox) in HK2 cells; format: cell-based; details: 12.5 μM or 25 μM, 24 hours, FIG. 6
# Protocol: Cultured human kidney-2 (HK2) cells were treated with Comparative Example 1, Example 2 and Examples 9 to 10 at a concentration of 25 μM or 12.5 μM, and after 24 hours, cytotoxicity was measured using an EZ-Cytox kit.
# klotho protein = assay: Klotho protein expression level in cisplatin-treated HK-2 cells; format: cell-based, human; details: FIG. 7B
# Protocol: As in the protocol in FIG. 7A, a disease model was made by treating HK-2 cells (human renal cells) with cisplatin (20 μM), and then treated with a KS1 compound (Example 10) (3 μM). After 24 hours, the expression degree of the klotho protein was confirmed by obtaining the cells.
# [4] = system: unilateral ureter obstruction model; assay: Unilateral ureter obstruction (UUO) model; format: in vivo; details: mice, 20 mg/kg/day into the abdominal cavity
# Protocol: In a unilateral ureter obstruction model, 5-week-old male […] mice were used. After the right ureter was tied with a thread to create a unilateral ureter obstruction model, the KS1 compound (20 mg/kg/day) was injected into the abdominal cavity daily starting 24 hours later. After that, samples were collected by sacrificing the mice on days 7 and 14 and tested (FIG. 8A). H&E staining was performed to investigate changes in the nucleus and cytoplasm in the unilateral ureter obstruction model, and the results are illustrated in FIG. 9. […] In addition, Sirius Red staining was performed to investigate the change according to the progress of fibrosis in the unilateral ureter obstruction model. […] TUNEL staining was performed to investigate the degree of apoptosis in the unilateral ureter obstruction model.
# [5] = system: chronic kidney disease model; assay: Chronic kidney disease model (db/db mice, high protein diet); format: in vivo; details: oral gavage daily 2, 10, 50 mg/kg
# From the text: For the chronic kidney disease model, 20 db/m mice (10 5-week-old mice, 10 6-week-old mice) and 50 db/db mice (25 5-week-old mice and 25 6-week-old mice) were imported from Jackson Lab, USA, and after the adaptation period, the experiment was started (mouse model number JAX 000642-BKS.Cg-Dock7m+/+Leprdb/j5W/M Wildtype for Dock7m, BKS.Cg-Dock7m+/+Leprdb/j 5W/M Heterozygous for Dock7m). Each group was divided into set1 and set2 due to the large number of mice, with 5-week-old mice as set2, and the experiment was conducted one week later so that all mice were in the experiment from 6 weeks of age. After measuring the body weight, the mice were evenly distributed in each group and fed a normal diet (ND) and a high protein diet (HPD). After 3 weeks on the high protein diet, 2-hour urine samples were collected via a metabolic cage for analysis. […] After 12 weeks of drug administration, mice were sacrificed, and blood and organs were obtained for hematology and tissue analysis. Urine analysis was performed at SCL healthcare center, and blood analysis was performed using I-STAT cartridge (CHEM 8+).
# The animals were anesthetized with anesthetic and perfusion-fixed with fixative (Periodate-Lysine-2% paraformaldehyde) through the heart for 8 minutes. Additional fixation was performed at 4° C. for 16 hours or more in the same fixative. After undergoing a dehydration process through an alcohol series, the tissue slides were prepared by embedding in wax and then cutting to 5 μm. After the tissue was hydrated again through the hydration process, it was immersed in a citric acid solution of pH 6 and heated to retrieve the aldehyde-fixed protein. Endogenous peroxidase was then blocked by treatment with 1.7% H2O2 in methanol for 30 minutes, followed by treatment with 0.5% triton X-100 in PBS for 15 minutes to increase the penetration of the antibody. […] Using more than 100 photographs for each group, the expressed areas were quantified using a color image analyzer (TDI Scope Eye version 3.6 for windows; Olympus, Japan) (FIG. 14). […]
# [6] = system: promoter of the human klotho gene; assay: Luciferase expression experiment, reporter gene pHKP-luc (promoter up to -2.1 kb upstream of human klotho gene) in RPTECs; format: cell-based
# Protocol: as §1, §2
# The plasmid was incorporated into cells using an X-treme GENE transfection reagent from Roche. The activity of luciferase expressed in cells was measured using a Dual-Luciferase reporter assay system manufactured by Promega. After the cultured cells were treated with each compound at an indicated concentration for 24 hours, the activity of luciferase was measured. It is indirectly shown that the expression of the klotho gene may be increased when the activity of luciferase is high.
# The results of confirming the expression of a reporter gene by treating RPTECs, which are epithelial cells of the proximal tubule of the human kidneys, with Examples 1 to 6 at concentrations of 0.5, 1 and 5 μM and Comparative Example 1 at a concentration of 5 μM and using a reporter gene (pHKP-luc) including a promoter included up to −2.1 kb upstream of the human klotho gene are illustrated in FIGS. 2 and 3.
# klotho (KL) gene [7] = assay: Quantitative evaluation of klotho (KL) gene expression level using real-time PCR in RPTEC cells; format: cell-based, human; details: treated for 6 hours, FIG. 4
# Protocol: For RNA extraction from RPTEC cells, which are epithelial cells of the proximal tubule of the human kidneys, treated with the compounds of Comparative Example 1 and Examples 1 and 2 for 6 hours, an RNeasy kit from Qiagen Inc. was used. The results of preparing cDNA from extracted RNA using a Superscript II kit from Thermo Fisher Scientific, Inc. and performing the quantitative evaluation using Taqman Gene Expression assays from Applied Biosystems as a klotho (KL) gene-specific kit are illustrated in FIG. 4.
# [8] = RPTECs, Examples at 0.5, 1 and 5 μM, Comparative Example 1 at 5 μM, FIG. 2
smiles,measurement,setting,value
"O=C(Nc1ccccc1Cl)c1c[nH]c2ccccc12 [Comparative Example 1, N-(2-chlorophenyl)-1H-indole-3-carboxamide]",luciferase activity (klotho promoter reporter),[1],the highest
"Fc1ccc(Nc2nc3ccccc3o2)cc1F [Example 10, N-(3,4-difluorophenyl)benzo[d]oxazol-2-amine]","expression level of the klotho (KL) gene, relative to the level of Comparative Example 1",klotho (KL) gene [2],about 10 times
same,improvement of toxicity compared to Comparative Example 1,[3],≥ 20%
same,"toxicity (cytotoxicity, EZ-Cytox)",[3],the least toxicity
same,expression of the klotho protein,"klotho protein; HK-2 cells, cisplatin (20 μM) disease model, then 3 μM compound, 24 hours",increased
same,renal hypertrophy (kidney size),[4]; FIG. 8B,no difference in size
same,"nuclear and cytoplasmic changes, tissue destruction (H&E staining)","[4]; one-week and two-week samples, FIG. 9",a large reduction in tissue destruction
same,klotho protein expression,"[4]; one-week sample, FIG. 12",increased
same,fibrosis (Sirius Red staining),"[4]; vs UUO model not treated, FIG. 10",fibrosis occurred less
same,apoptosis (TUNEL staining),"[4]; vs UUO model not treated, FIG. 11",remarkably reduced
same,MMP-9 protein expression level (inflammation marker),"[4]; week 1 and week 2, FIG. 13",remarkably reduced
same,"expression of klotho protein (immunohistochemistry, kidney)","[5]; 12 weeks, FIG. 14, 15",statistically significantly (p<0.05) increased
same,blood urea nitrogen (BUN),"[5]; 12 weeks, FIG. 17",statistically significant (p<0.05) decrease
same,microalbumin level in urine (in proportion to creatinine),[5]; FIG. 16,statistically significant (p<0.05) decrease
"N.N.[Cl][Pt][Cl] [cisplatin, reference compound]",expression of the klotho protein,klotho protein; HK-2 cells treated with cisplatin (20 μM) alone,decreased
"O=C(Nc1nc2ccccc2o1)c1ccc([N+](=O)[O-])cc1Cl [Example 1, N-(benzo[d]oxazol-2-yl)-2-chloro-4-nitrobenzamide]",expression of the reporter gene (pHKP-luc),[6]; [8],at a level similar to that of Comparative Example 1
Cc1ccc2oc(Nc3ccc(Cl)c(Cl)c3)nc2c1 [Example 2],expression of the reporter gene (pHKP-luc),"[6]; RPTEC cells, 5 μM, FIG. 3",at a level similar to that of Comparative Example 1
same,expression of the reporter gene (pHKP-luc),[6]; [8],at a level similar to that of Comparative Example 1
same,klotho (KL) gene mRNA expression level (real-time PCR),klotho (KL) gene [7],at a level similar to that of Comparative Example 1

# Reference: patent publication US12691102B2, “Composition for preventing or treating chronic kidney disease, comprising compound that induces expression of anti-aging gene klotho” (KLOTHO SCIENCES, priority 2021, dated 2026)
